The NIST ThermoML archive (doi:10.1021/je6005423)

Assay: molar heat capacity at constant pressure
Details: 101.33 kPa

CN(C)c1ccncc1 [4-(dimethylamino)pyridine]
Crystal
Details | molar heat capacity at constant pressure [J/K/mol]
289.25 K | 177.99
292.28 K | 179.13
295.28 K | 180.15
298.29 K | 181.32
301.34 K | 183.53
304.44 K | 184.83
307.47 K | 185.41
310.42 K | 187.12
313.4 K | 188.44
316.42 K | 189.79
319.4 K | 191.08
322.4 K | 192.54
325.41 K | 193.75
328.42 K | 194.7
331.5 K | 195.13
334.53 K | 196.95
337.56 K | 198.33
340.67 K | 200.84
342.97 K | 199.88
343.66 K | 201.99
343.86 K | 200.32
345.56 K | 201.09
346.45 K | 202.23
346.7 K | 203.24
348.77 K | 203.52
349.62 K | 204.76
349.67 K | 205.23
351.86 K | 205.79
352.63 K | 206.7
352.69 K | 207.19
354.94 K | 207.38
355.72 K | 208.46
355.82 K | 209.44
358.07 K | 209.19
358.46 K | 210.78
359.14 K | 211.21
361.26 K | 211.54
361.64 K | 213.95
362.4 K | 212.78
364.46 K | 214.96
364.97 K | 216.45
365.52 K | 215.57
367.64 K | 216.47
368.27 K | 219.21
368.63 K | 217.48
370.81 K | 219.17
371.06 K | 221.32
371.59 K | 220.81
373.98 K | 222.94
374.28 K | 223.05
374.54 K | 223.68
377.12 K | 225.02
377.36 K | 225
377.66 K | 225.68
380.18 K | 228.35
380.23 K | 226.87
380.77 K | 227.73
383.33 K | 231.81

Liquid, Small (less than 1 g) adiabatic calorimetry
Details | molar heat capacity at constant pressure [J/K/mol]
388.4 K | 231.37
389.73 K | 233.89
389.99 K | 232.72
390.88 K | 233.99
392.95 K | 234.74
393.17 K | 234.28
393.33 K | 235.41
395.77 K | 236.28
396.07 K | 235.35
396.35 K | 235.97
398.22 K | 237.66
399.18 K | 236.11
399.52 K | 236.69
402.29 K | 237.05
402.68 K | 237.16
